EC50 data for one compound are collected here from ChEMBL document CHEMBL5209581, “Membrane potential based assay for SLC6A5 using HEK-293 SLC6A5 OE cells” (2022).

Molecules are shown by their SMILES.

In the assay the target is T1, Sodium- and chloride-dependent glycine transporter 2 (Homo sapiens, UniProt Q9Y345).
T1 sequence (Q9Y345 whole entry): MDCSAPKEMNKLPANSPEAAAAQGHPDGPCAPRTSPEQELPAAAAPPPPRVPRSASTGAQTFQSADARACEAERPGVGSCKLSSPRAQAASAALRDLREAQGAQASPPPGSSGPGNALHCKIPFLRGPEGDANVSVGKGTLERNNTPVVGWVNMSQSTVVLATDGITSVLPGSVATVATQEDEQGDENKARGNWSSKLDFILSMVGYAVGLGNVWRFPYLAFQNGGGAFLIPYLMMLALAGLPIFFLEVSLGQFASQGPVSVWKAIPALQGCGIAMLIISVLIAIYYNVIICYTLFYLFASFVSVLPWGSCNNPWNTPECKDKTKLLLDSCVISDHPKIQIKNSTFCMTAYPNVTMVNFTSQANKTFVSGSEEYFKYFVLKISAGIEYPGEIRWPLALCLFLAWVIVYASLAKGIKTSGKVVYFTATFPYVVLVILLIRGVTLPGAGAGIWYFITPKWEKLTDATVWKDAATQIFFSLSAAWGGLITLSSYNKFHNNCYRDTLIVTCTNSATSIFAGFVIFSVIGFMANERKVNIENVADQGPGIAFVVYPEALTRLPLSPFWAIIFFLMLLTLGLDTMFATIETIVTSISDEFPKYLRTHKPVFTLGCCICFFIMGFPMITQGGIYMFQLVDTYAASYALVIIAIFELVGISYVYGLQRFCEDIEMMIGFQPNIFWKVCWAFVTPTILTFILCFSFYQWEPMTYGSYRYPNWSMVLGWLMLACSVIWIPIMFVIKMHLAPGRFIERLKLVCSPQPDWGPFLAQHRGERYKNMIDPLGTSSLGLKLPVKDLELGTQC
Description: Substrate uptake by the Glycine Transporter-2 (GlyT2, SLC6A5) as assessed by the fluorescent FLIPR membrane potential dye in HEK-293 JumpIN-SLC6A5 cells (PubChem AID: 1794825)

As for `NCC(=O)O` [GLYCINE], a half-maximal response (EC50) required 128 µM.
